ChEMBL document CHEMBL4311976, “Design, synthesis and biological evaluation of novel 7H-pyrrolo[2,3-d]pyrimidine derivatives as potential FAK inhibitors and anticancer agents” (Eur J Med Chem, 2019)

Tests used:
[1] = biological target: Tyrosine-protein kinase ZAP-70 (Homo sapiens) (UniProt P43403); experiment: Inhibition of recombinant full length His-tagged human ZAP70 expressed in baculovirus expression system at 0.5 uM using tyr 07 as substrate in presence of ATP at Km concentration after 1 hr by Z'-LYTE assay relative to control
[2] = biological target: Tyrosine-protein kinase SYK (Homo sapiens) (UniProt P43405); experiment: Inhibition of recombinant full length GST-tagged human SYK expressed in baculovirus expression system at 0.5 uM using tyr 02 as substrate in presence of ATP at Km concentration after 1 hr by Z'-LYTE assay relative to control
Homo sapiens = species: Homo sapiens; experiment: Inhibition of recombinant full length His-tagged human PKA catalytic domain expressed in Escherichia coli at 0.5 uM using Ser/Thr 01 as substrate in presence of ATP at Km concentration after 1 hr by Z'-LYTE assay relative to control
[3] = biological target: Serine/threonine-protein kinase pim-2 (Homo sapiens) (UniProt Q9P1W9); experiment: Inhibition of recombinant full length GST-tagged human PIM2 expressed in baculovirus expression system at 0.5 uM using Ser/Thr 07 as substrate in presence of ATP at Km concentration after 1 hr by Z'-LYTE assay relative to control
[4] = biological target: Hepatocyte growth factor receptor (Homo sapiens) (UniProt P08581); experiment: Inhibition of recombinant full length N-terminal His-tagged human cMET cytoplasmic domain (956 to 1390 residues) expressed in baculovirus expression system at 0.5 uM using tyr 06 as substrate in presence of ATP at Km concentration after 1 hr by Z'-LYTE assay relative to control
[5] = biological target: Tyrosine-protein kinase Lck (Homo sapiens) (UniProt P06239); experiment: Inhibition of recombinant full length His-tagged human LCK expressed in baculovirus expression system at 0.5 uM using tyr 02 as substrate in presence of ATP at Km concentration after 1 hr by Z'-LYTE assay relative to control
[6] = biological target: Mast/stem cell growth factor receptor Kit (Homo sapiens) (UniProt P10721); experiment: Inhibition of recombinant His-tagged human KIT (544 to 976 residues) expressed in baculovirus expression system at 0.5 uM using tyr 06 as substrate in presence of ATP at Km concentration after 1 hr by Z'-LYTE assay relative to control
[7] = biological target: Receptor tyrosine-protein kinase erbB-2 (Homo sapiens) (UniProt P04626); experiment: Inhibition of recombinant His-tagged human HER2 (676 to 1255 residues) expressed in baculovirus expression system at 0.5 uM using tyr 06 as substrate in presence of ATP at Km concentration after 1 hr by Z'-LYTE assay relative to control
[8] = biological target: Discoidin domain-containing receptor 2 (Homo sapiens) (UniProt Q16832); experiment: Inhibition of recombinant GST-tagged human DDR2 (427 to 855 residues) expressed in baculovirus expression system at 0.5 uM after 1 hr by Lantha screen assay relative to control
[9] = biological target: CDK2/Cyclin A2 (Homo sapiens) (UniProt P24941+P20248); experiment: Inhibition of recombinant full-legth His-tagged human CDK2/CyclinA expressed in baculovirus expression system at 0.5 uM using Ser/Thr 12 as substrate in presence of ATP at Km concentration after 1 hr by Z'-LYTE assay relative to control
[10] = biological target: RAC-alpha serine/threonine-protein kinase (Homo sapiens) (UniProt P31749); experiment: Inhibition of recombinant full-legth His-tagged human AKT1 expressed in baculovirus expression system at 0.5 uM using Ser/Thr 06 as substrate in presence of ATP at Km concentration after 1 hr by Z'-LYTE assay relative to control
[11] = biological target: Tyrosine-protein kinase ABL1 (Homo sapiens) (UniProt P00519); experiment: Inhibition of full-length His-tagged human ABL1 expressed in baculovirus expression system at 0.5 uM using tyr 02 as substrate in presence of ATP at Km concentration after 1 hr by Z'-LYTE assay relative to control
[12] = Intrinsic clearance in human liver at 1 uM measured up to 1 hr in presence of NADPH by LC-MS/MS analysis; type: ADME, tissue-based
[13] = Intrinsic clearance in rat liver at 1 uM measured up to 1 hr in presence of NADPH by LC-MS/MS analysis; type: ADME, tissue-based
[14] = Intrinsic clearance in rat liver microsomes at 1 uM measured up to 1 hr in presence of NADPH by LC-MS/MS analysis; type: ADME, Microsome; conditions: read-out: CLH
[15] = Intrinsic clearance in human liver microsomes at 1 uM measured up to 1 hr in presence of NADPH by LC-MS/MS analysis; type: ADME, Microsome; conditions: read-out: CLH
[16] = Metabolic stability in human liver microsomes assessed as compound remaining at 1 uM measured up to 1 hr in absence of NADPH by LC-MS/MS analysis; type: ADME, Microsome; conditions: read-out: Stability
[17] = Metabolic stability in rat liver microsomes assessed as compound remaining at 1 uM measured up to 1 hr in absence of NADPH by LC-MS/MS analysis; type: ADME, Microsome; conditions: read-out: Stability
[18] = Metabolic stability in rat liver microsomes assessed as compound remaining at 1 uM measured up to 1 hr in presence of NADPH by LC-MS/MS analysis; type: ADME, Microsome; conditions: read-out: Stability
[19] = Metabolic stability in mouse liver microsomes assessed as compound remaining at 1 uM measured up to 1 hr in presence of NADPH by LC-MS/MS analysis; type: ADME, Microsome; conditions: read-out: Stability
[20] = Half life in human liver microsomes at 1 uM measured up to 1 hr by LC-MS/MS analysis; type: ADME, Microsome
[21] = Half life in mouse liver microsomes at 1 uM measured up to 1 hr by LC-MS/MS analysis; type: ADME, Microsome
[22] = Half life in rat liver microsomes at 1 uM measured up to 1 hr by LC-MS/MS analysis; type: ADME, Microsome
A549 [23] = experiment: Induction of apoptosis in human A549 cells assessed as late apoptotic cells at 9 uM after 72 hrs by Annexin V-FITC/propidium iodide staining-based flow cytometric analysis (reference value: 1.24%); type: functional
A549 [24] = experiment: Induction of apoptosis in human A549 cells assessed as viable cells at 9 uM after 72 hrs by Annexin V-FITC/propidium iodide staining-based flow cytometric analysis (reference value: 94.66%); type: functional; conditions: A549, 72 h, read-out: Activity
A549 [25] = experiment: Induction of apoptosis in human A549 cells assessed as late apoptotic cells at 3 uM after 72 hrs by Annexin V-FITC/propidium iodide staining-based flow cytometric analysis (reference value: 1.24%); type: functional
Focal adhesion kinase 1 = Focal adhesion kinase 1 (Homo sapiens, UniProt Q05397); experiment: Inhibition of recombinant N-terminal GST-tagged human FAK (327 to 1052 residues) expressed in baculovirus expression system using TK as substrate incubated for 50 mins in presence of ATP and measured after 1 hr by HTRF assay
A549 [26] = experiment: cells; conditions: Homo sapiens, A549, 72 h
Description: Antiproliferative activity against human A549 cells assessed as reduction in cell viability after 72 hrs by MTT assay

HK-2 = experiment: cells; conditions: Homo sapiens, HK-2, 72 h
Description: Cytotoxicity against human HK2 cells assessed as reduction in cell viability after 72 hrs by MTT assay

Sequence of Mast/stem cell growth factor receptor Kit (Homo sapiens) (P10721 whole entry, the tested form may be a part): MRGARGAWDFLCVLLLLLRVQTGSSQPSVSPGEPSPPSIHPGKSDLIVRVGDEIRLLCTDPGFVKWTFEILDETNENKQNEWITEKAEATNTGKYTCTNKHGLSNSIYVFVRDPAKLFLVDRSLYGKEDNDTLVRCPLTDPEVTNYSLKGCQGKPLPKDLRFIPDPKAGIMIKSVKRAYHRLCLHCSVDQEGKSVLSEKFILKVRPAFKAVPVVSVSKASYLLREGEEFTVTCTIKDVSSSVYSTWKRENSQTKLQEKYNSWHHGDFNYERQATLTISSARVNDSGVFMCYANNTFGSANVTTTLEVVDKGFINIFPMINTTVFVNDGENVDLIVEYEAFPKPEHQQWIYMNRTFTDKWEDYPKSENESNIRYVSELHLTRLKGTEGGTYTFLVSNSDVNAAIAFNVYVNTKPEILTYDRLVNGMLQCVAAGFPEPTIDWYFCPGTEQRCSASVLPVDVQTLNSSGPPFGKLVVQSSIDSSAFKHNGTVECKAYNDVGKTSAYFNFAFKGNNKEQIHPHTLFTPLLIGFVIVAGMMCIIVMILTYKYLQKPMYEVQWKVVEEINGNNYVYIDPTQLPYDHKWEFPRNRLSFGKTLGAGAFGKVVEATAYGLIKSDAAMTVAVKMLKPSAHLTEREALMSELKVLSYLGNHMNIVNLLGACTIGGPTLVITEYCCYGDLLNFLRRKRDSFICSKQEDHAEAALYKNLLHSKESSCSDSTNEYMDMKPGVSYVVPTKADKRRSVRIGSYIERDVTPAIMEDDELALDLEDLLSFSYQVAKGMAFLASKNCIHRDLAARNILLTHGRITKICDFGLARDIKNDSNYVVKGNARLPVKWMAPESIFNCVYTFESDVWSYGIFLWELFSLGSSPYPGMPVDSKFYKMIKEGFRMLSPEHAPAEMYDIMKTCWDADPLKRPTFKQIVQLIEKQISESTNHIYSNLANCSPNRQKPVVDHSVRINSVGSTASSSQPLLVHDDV
Sequence of Tyrosine-protein kinase ZAP-70 (Homo sapiens) (P43403 whole entry): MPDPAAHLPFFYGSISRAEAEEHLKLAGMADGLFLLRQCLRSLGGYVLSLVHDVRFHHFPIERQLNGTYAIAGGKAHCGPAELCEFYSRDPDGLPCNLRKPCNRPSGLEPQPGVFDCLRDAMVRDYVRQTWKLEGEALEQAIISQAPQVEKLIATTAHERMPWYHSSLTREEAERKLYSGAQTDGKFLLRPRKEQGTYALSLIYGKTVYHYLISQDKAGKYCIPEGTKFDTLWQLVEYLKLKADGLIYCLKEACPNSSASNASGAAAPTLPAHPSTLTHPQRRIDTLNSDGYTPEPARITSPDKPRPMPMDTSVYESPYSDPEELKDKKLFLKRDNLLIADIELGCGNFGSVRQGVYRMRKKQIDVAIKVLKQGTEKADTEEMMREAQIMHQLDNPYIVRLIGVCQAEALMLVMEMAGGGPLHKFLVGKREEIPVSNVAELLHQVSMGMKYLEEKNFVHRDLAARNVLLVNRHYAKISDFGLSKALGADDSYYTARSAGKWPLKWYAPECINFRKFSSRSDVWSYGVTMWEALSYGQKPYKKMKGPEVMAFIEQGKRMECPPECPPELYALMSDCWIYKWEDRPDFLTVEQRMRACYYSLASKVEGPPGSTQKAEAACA
Sequence of Discoidin domain-containing receptor 2 (Homo sapiens) (Q16832 whole entry, the tested form may be a part): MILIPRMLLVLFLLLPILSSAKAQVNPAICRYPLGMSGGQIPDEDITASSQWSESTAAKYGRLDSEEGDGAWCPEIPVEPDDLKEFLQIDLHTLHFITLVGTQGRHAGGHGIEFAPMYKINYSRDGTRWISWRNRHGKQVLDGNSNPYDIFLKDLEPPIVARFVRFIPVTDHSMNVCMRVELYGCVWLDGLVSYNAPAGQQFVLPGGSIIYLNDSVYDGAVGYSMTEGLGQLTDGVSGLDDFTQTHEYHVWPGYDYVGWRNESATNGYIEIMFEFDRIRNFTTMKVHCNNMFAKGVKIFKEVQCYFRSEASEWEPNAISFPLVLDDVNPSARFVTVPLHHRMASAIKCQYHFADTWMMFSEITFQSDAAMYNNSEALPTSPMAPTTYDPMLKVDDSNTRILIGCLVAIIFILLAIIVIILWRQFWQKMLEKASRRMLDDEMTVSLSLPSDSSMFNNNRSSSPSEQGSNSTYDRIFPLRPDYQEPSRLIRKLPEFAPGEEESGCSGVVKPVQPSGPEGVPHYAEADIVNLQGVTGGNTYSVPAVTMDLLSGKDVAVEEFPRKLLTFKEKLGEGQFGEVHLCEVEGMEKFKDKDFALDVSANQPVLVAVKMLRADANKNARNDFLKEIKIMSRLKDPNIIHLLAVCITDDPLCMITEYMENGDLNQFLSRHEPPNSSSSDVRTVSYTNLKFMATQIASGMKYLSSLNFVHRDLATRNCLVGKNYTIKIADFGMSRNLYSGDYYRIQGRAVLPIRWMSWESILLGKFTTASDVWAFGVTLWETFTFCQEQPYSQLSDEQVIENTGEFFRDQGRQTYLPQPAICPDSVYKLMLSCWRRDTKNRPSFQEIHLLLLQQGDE
Sequence of Receptor tyrosine-protein kinase erbB-2 (Homo sapiens) (P04626 whole entry, the tested form may be a part): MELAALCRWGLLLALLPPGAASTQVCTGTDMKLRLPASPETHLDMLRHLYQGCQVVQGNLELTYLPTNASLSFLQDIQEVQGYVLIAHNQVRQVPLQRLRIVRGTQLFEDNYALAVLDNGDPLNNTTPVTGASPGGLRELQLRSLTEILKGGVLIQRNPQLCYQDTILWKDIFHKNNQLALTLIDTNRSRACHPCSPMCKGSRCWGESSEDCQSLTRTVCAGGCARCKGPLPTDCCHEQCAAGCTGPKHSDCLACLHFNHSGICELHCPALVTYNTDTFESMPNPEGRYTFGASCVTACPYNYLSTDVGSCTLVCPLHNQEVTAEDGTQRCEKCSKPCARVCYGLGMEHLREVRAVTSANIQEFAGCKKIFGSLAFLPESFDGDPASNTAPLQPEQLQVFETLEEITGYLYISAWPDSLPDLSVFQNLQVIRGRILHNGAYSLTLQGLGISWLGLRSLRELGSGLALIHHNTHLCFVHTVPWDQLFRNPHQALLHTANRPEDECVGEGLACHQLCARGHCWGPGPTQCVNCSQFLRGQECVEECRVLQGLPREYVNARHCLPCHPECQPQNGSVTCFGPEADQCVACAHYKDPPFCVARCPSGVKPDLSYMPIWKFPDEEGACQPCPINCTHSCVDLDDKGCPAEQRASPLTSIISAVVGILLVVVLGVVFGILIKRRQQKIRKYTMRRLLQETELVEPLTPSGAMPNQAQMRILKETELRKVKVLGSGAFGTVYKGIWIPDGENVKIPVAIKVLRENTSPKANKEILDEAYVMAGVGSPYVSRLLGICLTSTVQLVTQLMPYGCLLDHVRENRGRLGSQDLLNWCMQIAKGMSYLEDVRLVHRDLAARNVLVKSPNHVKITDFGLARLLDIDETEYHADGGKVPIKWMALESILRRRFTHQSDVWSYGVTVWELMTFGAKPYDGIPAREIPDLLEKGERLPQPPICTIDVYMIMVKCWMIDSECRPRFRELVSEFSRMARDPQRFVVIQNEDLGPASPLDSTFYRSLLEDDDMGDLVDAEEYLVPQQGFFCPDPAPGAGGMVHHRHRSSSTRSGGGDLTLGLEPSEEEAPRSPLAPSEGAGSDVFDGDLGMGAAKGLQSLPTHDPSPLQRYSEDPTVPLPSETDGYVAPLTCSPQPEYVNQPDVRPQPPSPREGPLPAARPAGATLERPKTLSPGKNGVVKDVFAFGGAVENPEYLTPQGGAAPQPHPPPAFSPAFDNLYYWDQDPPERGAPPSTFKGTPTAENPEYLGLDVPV
Sequence of Serine/threonine-protein kinase pim-2 (Homo sapiens) (Q9P1W9 whole entry, looked up, the tested form may be a part): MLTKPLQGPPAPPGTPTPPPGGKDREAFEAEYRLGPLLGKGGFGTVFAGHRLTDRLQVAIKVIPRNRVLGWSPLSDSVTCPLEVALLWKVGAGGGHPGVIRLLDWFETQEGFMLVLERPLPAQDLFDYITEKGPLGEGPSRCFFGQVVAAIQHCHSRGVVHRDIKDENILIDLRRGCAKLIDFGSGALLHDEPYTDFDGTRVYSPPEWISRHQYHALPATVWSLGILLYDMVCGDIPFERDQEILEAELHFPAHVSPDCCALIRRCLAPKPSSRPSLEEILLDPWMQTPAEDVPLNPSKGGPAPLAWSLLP
Sequence of Focal adhesion kinase 1 (Q05397 whole entry, the tested form may be a part): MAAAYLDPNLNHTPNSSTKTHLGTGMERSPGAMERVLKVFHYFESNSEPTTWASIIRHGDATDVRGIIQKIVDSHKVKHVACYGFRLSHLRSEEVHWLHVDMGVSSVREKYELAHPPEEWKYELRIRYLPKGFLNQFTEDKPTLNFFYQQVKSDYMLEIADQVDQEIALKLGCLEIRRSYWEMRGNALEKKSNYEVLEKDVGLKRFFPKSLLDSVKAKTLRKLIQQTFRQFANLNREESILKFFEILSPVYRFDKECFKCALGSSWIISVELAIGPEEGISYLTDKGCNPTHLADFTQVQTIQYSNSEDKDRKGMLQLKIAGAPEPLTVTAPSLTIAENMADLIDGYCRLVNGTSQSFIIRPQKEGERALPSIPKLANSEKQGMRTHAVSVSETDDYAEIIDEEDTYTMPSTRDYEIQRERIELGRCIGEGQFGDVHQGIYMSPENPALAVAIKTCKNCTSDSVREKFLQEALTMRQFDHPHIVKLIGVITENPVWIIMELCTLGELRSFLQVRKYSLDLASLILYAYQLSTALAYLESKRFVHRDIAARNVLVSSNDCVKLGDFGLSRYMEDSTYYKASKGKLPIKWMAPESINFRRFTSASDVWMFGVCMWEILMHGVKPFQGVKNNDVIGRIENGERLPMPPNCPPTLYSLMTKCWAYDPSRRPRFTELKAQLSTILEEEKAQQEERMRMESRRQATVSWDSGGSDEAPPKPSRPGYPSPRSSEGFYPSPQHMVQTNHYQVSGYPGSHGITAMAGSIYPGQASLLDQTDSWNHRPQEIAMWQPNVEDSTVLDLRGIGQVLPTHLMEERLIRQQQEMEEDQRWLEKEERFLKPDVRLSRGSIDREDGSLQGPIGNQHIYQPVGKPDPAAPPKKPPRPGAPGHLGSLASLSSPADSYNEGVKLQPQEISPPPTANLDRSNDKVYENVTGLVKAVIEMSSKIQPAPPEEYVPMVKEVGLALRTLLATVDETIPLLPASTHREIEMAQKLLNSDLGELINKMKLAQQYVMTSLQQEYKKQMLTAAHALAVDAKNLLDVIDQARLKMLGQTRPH

COc1cc(C(=O)NC2CCNCC2)ccc1Nc1nc(Nc2ccccc2P(C)(C)=O)c2cc[nH]c2n1
inhibition [1]: -3% | inhibition [2]: 73% | inhibition (Homo sapiens): 2% | inhibition [3]: -3% | inhibition [4]: -2% | inhibition [5]: 14% | inhibition [6]: 2% | inhibition [7]: 12% | inhibition [8]: 1% | inhibition [9]: 1% | inhibition [10]: 0% | inhibition [11]: 5% | CLH [12]: 11.6 mL/min/kg | CLH [13]: < 17.3 mL/min/kg | microsomal CLint at 1 µM [14]: < 9.6 µL/min/mg | microsomal CLint at 1 µM [15]: 12.9 µL/min/mg | remaining at 1 h, 1 µM [16]: 81.2% | remaining at 1 h, 1 µM [17]: 76.3% | remaining at 1 h, 1 µM [18]: 80.7% | remaining at 1 h, 1 µM [19]: 75.4% | half-life at 1 µM [20]: 1.79 h | half-life at 1 µM [21]: 2.29 h | half-life at 1 µM [22]: > 2.42 h | Activity (A549 [23]): 36.59% | viability at 9 µM (A549 [24]): 29.1% | Activity (A549 [25]): 25.09% | IC50 (Focal adhesion kinase 1): 0.0054 µM | IC50 (A549 [26]): 3.2 µM | IC50 (HK-2): > 25 µM
